Test results reported in patent US7557110B2, “Pyrazolo[1,5-A] pyrimidine derivatives” (Teijin Pharma Limited, priority 2003, dated 2009).
Read-outs that look alike come from different tables or passages of the source.

Legend:
CDK-2 = CDK-2 (Homo sapiens, UniProt P24941); assay: CDK-2 enzyme activity inhibition (33P-ATP filter plate kinase assay); type: biochemical
From the text: [General Procedure for Measurement of CDK-2 Enzyme Activity Inhibition]

MAPKAP-K2 = MAPKAP-K2 (Homo sapiens, UniProt P49137); assay: MAPKAP-K2 enzyme activity inhibition (33P-ATP filter plate kinase assay); type: biochemical; settings: MAPKAP-K2 inhibitory activity; assays conducted at typically 1-100 μM; also: key: +: active; ++: more active; +++: very active
Chain of MAPKAP-K2 (P49137 whole entry): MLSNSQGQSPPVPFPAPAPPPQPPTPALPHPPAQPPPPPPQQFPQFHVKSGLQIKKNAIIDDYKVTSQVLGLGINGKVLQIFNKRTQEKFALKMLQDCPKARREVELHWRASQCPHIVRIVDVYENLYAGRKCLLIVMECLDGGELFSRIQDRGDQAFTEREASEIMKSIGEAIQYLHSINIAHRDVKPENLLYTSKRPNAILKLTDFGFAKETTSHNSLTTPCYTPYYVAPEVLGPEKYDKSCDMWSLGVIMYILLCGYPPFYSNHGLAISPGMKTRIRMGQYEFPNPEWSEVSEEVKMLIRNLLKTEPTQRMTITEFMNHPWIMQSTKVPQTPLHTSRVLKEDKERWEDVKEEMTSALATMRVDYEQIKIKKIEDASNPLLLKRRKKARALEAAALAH
Description: [General Procedure for Measurement of MAPKAP-K2 Enzyme Activity Inhibition]
After conducting the reaction for 30 minutes at room temperature, an equivalent volume of a 200 mM phosphoric acid solution was added to suspend the reaction, and 90 μL of the reaction product was adsorbed onto a MultiScreen PH plate (Millipore) and rinsed with a 100 mM phosphoric acid solution. After drying the plate, 30 μL of MicroScint-O (Packard BioScience) was added, and the cpm was measured with a scintillation counter to determine the inhibiting activity. Substrate peptide is […]

[1] = read-out: CDK-2 inhibition IC50

SMILES | IC50 (CDK-2; [1]) [µM] | melting point | activity (efficacy against MAPKAP-K2) (MAPKAP-K2) | IC50 (CDK-2) [µM]
Cc1nn2c(Nc3ccc(F)c(Cl)c3)cc(N[C@H]3CC[C@H](N)CC3)nc2c1Br [Compound 6] | < 100 | 224 to 226 °C (dec.) | – | –
CCc1c(N[C@H]2CC[C@H](N)CC2)nc2ccnn2c1NCc1ccccc1Cl [Compound 38] | < 100 | 63 to 65 °C | ++ | –
C=C(C)CNc1c(CC)c(N[C@H]2CC[C@H](N)CC2)nc2ccnn12 [Compound 46] | < 100 | 91 to 93 °C | ++ | –
N[C@H]1CC[C@H](Nc2cc(Nc3ccc(F)c(Cl)c3)n3ncc(I)c3n2)CC1 [Compound 49] | < 100 | 153 to 155 °C | ++ | –
CCCCOc1ccc(Nc2c(CCCO)c(N[C@H]3CC[C@H](N)CC3)nc3ccnn23)cc1 [Compound 53] | < 100 | 116 to 118 °C | +++ | –
CCc1c(N[C@H]2CC[C@H](N)CC2)nc2ccnn2c1Nc1ccc(OC)c(Cl)c1 [Compound 55] | < 100 | 189 to 192 °C | +++ | –
CCCCOc1ccc(Nc2c(CC)c(N[C@H]3CC[C@H](N)CC3)nc3ccnn23)cc1 [Compound 56] | < 100 | 144 to 148 °C | +++ | –
CCc1c(N[C@H]2CC[C@H](N)CC2)nc2ccnn2c1Nc1ccc(Oc2ccc(C)cc2)cc1 [Compound 57] | < 100 | 102 to 104 °C | +++ | –
CCc1c(N[C@H]2CC[C@H](N)CC2)nc2ccnn2c1Nc1ccc(OC)c(OC)c1 [Compound 58] | < 100 | 181 to 185 °C | ++ | –
CCOc1ccc(Nc2c(C)c(N[C@H]3CC[C@H](N)CC3)nc3c(CO)cnn23)cc1 [Compound 92] | < 100 | 101 to 104 °C | – | –
Cc1c(N[C@H]2CC[C@H](N)CC2)nc2ccnn2c1Nc1ccc(-c2ccccc2Cl)cc1 [Compound 313] | < 100 | – | ++ | –
Cc1c(N[C@H]2CC[C@H](N)CC2)nc2ccnn2c1Nc1ccc(-c2ccc(N(C)C)cc2)cc1 [Compound 314] | < 100 | – | +++ | –
Cc1c(N[C@H]2CC[C@H](N)CC2)nc2ccnn2c1Nc1ccc(-c2cccc(N(C)C)c2)cc1 [Compound 315] | < 100 | – | +++ | –
Cc1c(N[C@H]2CC[C@H](N)CC2)nc2ccnn2c1Nc1ccc(-c2cccc(OC(F)(F)F)c2)cc1 [Compound 316] | < 100 | – | +++ | –
Cc1c(N[C@H]2CC[C@H](N)CC2)nc2ccnn2c1Nc1ccc(-c2ccc(OC(F)(F)F)cc2)cc1 [Compound 317] | < 100 | – | +++ | –
Cc1c(N[C@H]2CC[C@H](N)CC2)nc2ccnn2c1Nc1ccc(-c2ccc(C#N)cc2)cc1 [Compound 318] | < 100 | – | +++ | –
Cc1c(N[C@H]2CC[C@H](N)CC2)nc2ccnn2c1Nc1ccc(-c2cccc(C#N)c2)cc1 [Compound 319] | < 100 | – | +++ | –
Cc1cccc(-c2ccc(Nc3c(C)c(N[C@H]4CC[C@H](N)CC4)nc4ccnn34)cc2)c1 [Compound 320] | < 100 | – | +++ | –
Cc1ccccc1-c1ccc(Nc2c(C)c(N[C@H]3CC[C@H](N)CC3)nc3ccnn23)cc1 [Compound 321] | < 100 | – | +++ | –
Cc1c(N[C@H]2CC[C@H](N)CC2)nc2ccnn2c1Nc1ccc(-c2ccccc2C(F)(F)F)cc1 [Compound 323] | < 100 | – | ++ | –
Cc1c(N[C@H]2CC[C@H](N)CC2)nc2ccnn2c1Nc1ccc(-c2cccc(C(F)(F)F)c2)cc1 [Compound 324] | < 100 | – | +++ | –
CCOc1ccc(Nc2c(C)c(N(C)C3CCCNC3)nc3ccnn23)cc1 (centres unmarked) [Compound 340] | < 100 | – | + | –
CCOc1ccc(Nc2c(C)c(N(CC)C3CCCNC3)nc3ccnn23)cc1 (centres unmarked) [Compound 341] | < 100 | – | + | –
Cc1c(N[C@H]2CC[C@H](N)CC2)nc2ccnn2c1Nc1ccc(-c2ccc(C(F)(F)F)cc2)cc1 [Compound 350] | < 100 | – | +++ | –
CCS(=O)(=O)c1ccc(-c2ccc(Nc3c(C)c(N[C@H]4CC[C@H](N)CC4)nc4ccnn34)cc2)cc1 [Compound 351] | < 100 | – | +++ | –
Cc1c(N[C@H]2CC[C@H](N)CC2)nc2ccnn2c1Nc1ccc(-c2ccc(CO)cc2)cc1 [Compound 352] | < 100 | – | +++ | –

SMILES | IC50 (CDK-2; [1]) [µM] | melting point | activity (efficacy against MAPKAP-K2) (MAPKAP-K2) | IC50 (CDK-2) [µM]
Cc1c(N[C@H]2CC[C@H](N)CC2)nc2ccnn2c1Nc1ccc(-c2cccc(CO)c2)cc1 [Compound 353] | < 100 | – | +++ | –
COCc1cccc(-c2ccc(Nc3c(C)c(N[C@H]4CC[C@H](N)CC4)nc4ccnn34)cc2)c1 [Compound 354] | < 100 | – | +++ | –
CC(=O)c1ccc(-c2ccc(Nc3c(C)c(N[C@H]4CC[C@H](N)CC4)nc4ccnn34)cc2)s1 [Compound 355] | < 100 | – | +++ | –
CCOc1ccc(-c2ccc(Nc3c(C)c(N[C@H]4CC[C@H](N)CC4)nc4ccnn34)cc2)cc1 [Compound 356] | < 100 | – | +++ | –
Cc1csc(-c2ccc(Nc3c(C)c(N[C@H]4CC[C@H](N)CC4)nc4ccnn34)cc2)c1 [Compound 357] | < 100 | – | +++ | –
CCOc1ccc(Nc2c(C)c(N[C@H]3CC[C@H](N)CC3)nc3c(C(=O)Nc4ccccn4)cnn23)cc1 [Compound 359] | < 100 | – | ++ | –
CCCCC(=O)c1cnn2c(Nc3ccc(OCC)cc3)c(C)c(N[C@H]3CC[C@H](N)CC3)nc12 [Compound 362] | < 100 | – | ++ | –
CCOc1ccc(Nc2c(C)c(N[C@@H]3CCNC3)nc3ccnn23)cc1 [Compound 412] | < 100 | – | ++ | –
Cc1c(N[C@H]2CC[C@H](N)CC2)nc2c(C(=O)C(F)(F)F)cnn2c1Nc1ccc(I)cc1 [Compound 417, 1-{5-[(trans-4-aminocyclohexyl)amino]-7-[(4-iodophenyl)amino]-6-methyl(pyrazolo[1,5-a]pyrimidin-3-yl)}-2,2,2-trifluoroethan-1-one] | < 100 | – | + | –
CCOc1ccc(Nc2c(C)c(N[C@@H]3CCN(Cc4ccccc4)C3)nc3ccnn23)cc1 [Compound 418] | < 100 | – | ++ | –
Cc1cscc1-c1ccc(Nc2c(C)c(N[C@H]3CC[C@H](N)CC3)nc3ccnn23)cc1 [Compound 421] | < 100 | – | +++ | –
Cc1c(N[C@H]2CC[C@H](N)CC2)nc2ccnn2c1Nc1ccc(-c2cn[nH]c2)cc1 [Compound 422] | < 100 | – | +++ | –
Cc1c(N[C@H]2CC[C@H](N)CC2)nc2ccnn2c1Nc1ccc(-c2cc3ccccc3[nH]2)cc1 [Compound 423] | < 100 | – | +++ | –
CCOc1ccc(Nc2c(C)c(N[C@H]3CC[C@H](N)CC3)nc3c(NC)cnn23)cc1 [Compound 437] | < 100 | – | + | –
Cc1c(N[C@H]2CC[C@H](N)CC2)nc2c(F)cnn2c1Nc1ccc(I)cc1 [Compound 441, {5-[(trans-4-aminocyclohexyl)amino]-3-fluoro-6-methyl(pyrazolo[1,5-a]pyrimidin-7-yl)}(4-iodophenyl)amine] | < 100 | – | +++ | –
Cc1c(NC2CCCNC2)nc2ccnn2c1Nc1ccc(-c2cccc(N)c2)cc1 (centres unmarked) [Compound 444] | < 100 | – | +++ | –
Cc1c(NC2CCCNC2)nc2ccnn2c1Nc1ccc(-c2cccc(CO)c2)cc1 (centres unmarked) [Compound 445] | < 100 | – | +++ | –
CNC(=O)c1ccc(Nc2c(C)c(N[C@H]3CC[C@H](N)CC3)nc3ccnn23)cc1 [Compound 460] | < 100 | – | +++ | –
Cc1c(N[C@H]2CC[C@H](N)CC2)nc2ccnn2c1Nc1ccc(C(=O)NC2CCCC2)cc1 [Compound 463] | < 100 | – | +++ | –
Cc1c(N[C@H]2CC[C@H](N)CC2)nc2ccnn2c1Nc1ccc(C(=O)NCc2ccco2)cc1 [Compound 511] | < 100 | – | +++ | –
CCOc1ccc(Nc2c(C)c(N[C@@H]3CN[C@@H](C(=O)O)C3)nc3ccnn23)cc1 [Compound 772] | < 100 | – | ++ | –
CC(=O)c1ccc(-c2ccc(Nc3c(C)c(N[C@H]4CCCNC4)nc4ccnn34)cc2)s1 [Compound 773] | – | – | +++ | < 100
Cc1c(N[C@H]2CC[C@H](N)CC2)nc2ccnn2c1Nc1ccc(C(=O)Nc2ccccc2)cc1 [Compound 776] | < 100 | – | +++ | –
Cc1c(N[C@H]2CC[C@H](N)CC2)nc2ccnn2c1Nc1ccc(C(=O)c2ccccc2)cc1 [Compound 778] | < 100 | – | +++ | –
Cc1c(N[C@H]2CC[C@H](N)CC2)nc2ccnn2c1Nc1ccc(OC(F)(F)F)c(Cl)c1 [Compound 785] | < 100 | – | +++ | –
